The target of this experiment is KRas G12C (Homo sapiens, UniProt P01116, G12C). The experiment is described as follows: Cellular inhibition of KRas G12C measured by Phospho-ERK in NCI-H358 cells. Type of experiment: cell-based. To be noted: pERK(Thr202/Tyr204) normalized with GAPDH, NCI-H358 cells, 3 hours; read-out: IC50. The method in brief: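 Ratio of phospho-ERK(Thr202/Tyr204) to GAPDH, read by near-infrared secondary antibodies on fixed, permeabilised NCI-H358 cells, expressed relative to DMSO control. Compound exposure was 3 h at 0.5% DMSO. IC50 values come from 4-parameter curve fits.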
Chain of KRas G12C (P01116 1-188 isoform P01116-2 G12C): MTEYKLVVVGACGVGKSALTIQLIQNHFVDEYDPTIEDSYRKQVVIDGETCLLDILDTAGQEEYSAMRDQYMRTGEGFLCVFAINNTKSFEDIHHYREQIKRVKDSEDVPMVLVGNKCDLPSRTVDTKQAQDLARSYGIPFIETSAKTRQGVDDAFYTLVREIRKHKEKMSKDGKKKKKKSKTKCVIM
Consider `C=CC(=O)N1CCN(c2nc(OC[C@H]3CN(C)[C@H](C)CO3)nc3c2CCN(c2cccc4ccccc24)C3)C[C@@H]1CC#N` [Example 451, 2-((S)-1-Acryloyl-4-(2-(((2R,5R)-4,5-dimethylmorpholin-2-yl)methoxy)-7-(naphthalen-1-yl)-5,6,7,8-tetrahydropyrido[3,4-d]pyrimidin-4-yl)piperazin-2-yl)acetonitrile], for which the IC50 is 0.1 to 1000 nM.

As to `C=CC(=O)N1CCN(c2nc(OCCCN3CCN(C)CC3)nc3c2CCN(c2cc(O)cc4ccccc24)C3)CC1` [Example 82, 1-(4-(7-(3-hydroxynaphthalen-1-yl)-2-(3-(4-methylpiperazin-1-yl)propoxy)-5,6,7,8-tetrahydropyrido[3,4-d]pyrimidin-4-yl)piperazin-1-yl)prop-2-en-1-one], the IC50 lay within 0.1 to 1000 nM.

For the compound `C=CC(=O)N1CCN(c2nc(OC[C@@H]3CCCN3C)nc3c2CCN(c2cc(F)ccc2OC(F)(F)F)C3)CC1CC#N` (stereo partly shown) [Example 225], the IC50 was in the range of 0.1 to 1000 nM.

`C=CC(=O)N1C[C@H](C)N(c2nc(OC[C@@H]3CCCN3C)nc3c2CCN(c2cccc4ccccc24)C3)C[C@@H]1CC#N` [Example 368, 2-((2S,5S)-1-acryloyl-5-methyl-4-(2-(((S)-1-methylpyrrolidin-2-yl)methoxy)-7-(naphthalen-1-yl)-5,6,7,8-tetrahydropyrido[3,4-d]pyrimidin-4-yl)piperazin-2-yl)acetonitrile]: the IC50 was > 1000 nM.

As for `C=CC(=O)N1CCN(c2nc(OC[C@@H]3CCCN3C)nc3c2CCN(c2cccc(C)c2Cl)C3)C[C@@H]1CC#N` [Example 425, 2-((S)-1-acryloyl-4-(7-(2-chloro-3-methylphenyl)-2-(((S)-1-methylpyrrolidin-2-yl)methoxy)-5,6,7,8-tetrahydropyrido[3,4-d]pyrimidin-4-yl)piperazin-2-yl)acetonitrile], the half-inhibitory concentration (IC50) was 0.1 to 1000 nM.

As to `C=CC(=O)N1CCN(c2nc(OC[C@@H]3CCCN3C)nc3c2CCN(c2ccc(F)c4ccccc24)C3)CC1CC#N` (stereo partly drawn) [Example 246, 2-[4-[7-(4-fluoro-1-naphthyl)-2-[[(2S)-1-methylpyrrolidin-2-yl]methoxy]-6,8-dihydro-5H-pyrido[3,4-d]pyrimidin-4-yl]-1-prop-2-enoyl-piperazin-2-yl] acetonitrile], the IC50 lay within 0.1 to 1000 nM.

Consider `C=CC(=O)N1CCN(c2nc(OC[C@@H]3CCCN3CC)nc3c2CCN(c2cccc(Cl)c2C(F)(F)F)C3)C[C@@H]1CC#N` [Example 339, 2-((S)-1-acryloyl-4-(7-(3-chloro-2-(trifluoromethyl)phenyl)-2-(((S)-1-ethylpyrrolidin-2-yl)methoxy)-5,6,7,8-tetrahydropyrido[3,4-d]pyrimidin-4-yl)piperazin-2-yl)acetonitrile], for which the IC50 was 0.1 to 1000 nM.

As for `C=CC(=O)N1CCN(c2nc(OCCN(CC)CC)nc3c2CCN(c2c(C)ccc4[nH]ncc24)C3)CC1` [Example 163, 1-(4-(2-(2-(diethylamino)ethoxy)-7-(5-methyl-1H-indazol-4-yl)-5,6,7,8-tetrahydropyrido[3,4-d]pyrimidin-4-yl)piperazin-1-yl)prop-2-en-1-one], the concentration for half-maximal inhibition (IC50) was > 1000 nM.

Consider `C=CC(=O)N1CCN(c2nc(OC[C@@H]3CCCN3C)nc3c2CCN(c2cccc4ccccc24)C3)C(C)(C)C1` [Example 354, 1-[3,3-dimethyl-4-[2-[[(2S)-1-methylpyrrolidin-2-yl]methoxy]-7-(1-naphthyl)-6,8-dihydro-5H-pyrido[3,4-d]pyrimidin-4-yl]piperazin-1-yl]prop-2-en-1-one], for which the IC50 is > 1000 nM.

In the case of `CC#CC(=O)N1CCN(c2nc(OC[C@@H]3CCCN3C)nc3c2CCN(c2cccc(C)c2C)C3)C[C@@H]1CC#N` [Example 389, 2-((S)-1-(but-2-ynoyl)-4-(7-(2,3-dimethylphenyl)-2-(((S)-1-methylpyrrolidin-2-yl)methoxy)-5,6,7,8-tetrahydropyrido[3,4-d]pyrimidin-4-yl)piperazin-2-yl)acetonitrile], the IC50 is > 1000 nM.

As to `C=CC(=O)N1CCN(c2nc(O[C@H](C)CN3CC[C@H](OC)C3)nc3c2CCN(c2cc(O)cc4ccccc24)C3)CC1` [Example 64, 1-(4-(7-(3-hydroxynaphthalen-1-yl)-2-(((R)-1-((S)-3-methoxypyrrolidin-1-yl)propan-2-yl)oxy)-5,6,7,8-tetrahydropyrido[3,4-d]pyrimidin-4-yl)piperazin-1-yl)prop-2-en-1-one], the IC50 was 0.1 to 1000 nM.

For `C=CC(=O)N1CCN(c2nc(OC[C@H]3CCCN3C)nc3c2CCN(c2cccc4ccccc24)C3)C[C@@H]1CC#N` [Example 441, 2-((S)-1-acryloyl-4-(2-(((R)-1-methylpyrrolidin-2-yl)methoxy)-7-(naphthalen-1-yl)-5,6,7,8-tetrahydropyrido[3,4-d]pyrimidin-4-yl)piperazin-2-yl)acetonitrile], the IC50 is 0.1 to 1000 nM.

For `C=C(F)C(=O)N1CCN(c2nc(OC[C@H]3C[C@@H](OC)CN3C)nc3c2CCN(c2cccc4cccc(C)c24)C3)C[C@@H]1CC#N` [Example 519, 2-[(2S)-1-(2-fluoroprop-2-enoyl)-4-[2-[[(2R,4R)-4-methoxy-1-methyl-pyrrolidin-2-yl]methoxy]-7-(8-methyl-1-naphthyl)-6,8-dihydro-5H-pyrido[3,4-d]pyrimidin-4-yl]piperazin-2-yl]acetonitrile], the 50% inhibitory concentration (IC50) was in the range of 0.1 to 1000 nM.

Take `C=CC(=O)N1CCN(c2nc(OCc3ncc[nH]3)nc3c2CCN(c2cccc4ccccc24)C3)C[C@@H]1CC#N` [Example 351, 2-[(2S)-4-[2-(1H-imidazol-2-ylmethoxy)-7-(1-naphthyl)-6,8-dihydro-5H-pyrido[3,4-d]pyrimidin-4-yl]-1-prop-2-enoyl-piperazin-2-yl]acetonitrile]: the IC50 was in the range of 0.1 to 1000 nM.

With `C=CC(=O)N1CCN(c2nc(OC[C@@H]3CCCCN3C)nc3c2CCN(c2cccc4ccccc24)C3)C[C@@H]1CC#N` [Example 377, 2-((S)-1-acryloyl-4-(2-(((S)-1-methylpiperidin-2-yl)methoxy)-7-(naphthalen-1-yl)-5,6,7,8-tetrahydropyrido[3,4-d]pyrimidin-4-yl)piperazin-2-yl)acetonitrile], the IC50 is 0.1 to 1000 nM.

Turning to `C=CC(=O)N1CCN(c2nc(OCCN(C)C)nc3c2CCN(c2cc(O)cc4ccccc24)C3)C[C@H]1C` [Example 15, (R)-1-(4-(2-(2-(dimethylamino)ethoxy)-7-(3-hydroxynaphthalen-1-yl)-5,6,7,8-tetrahydropyrido[3,4-d]pyrimidin-4-yl)-2-methylpiperazin-1-yl)prop-2-en-1-one], the IC50 is > 1000 nM.

Turning to `C=CC(=O)N1CC2(C1)CN(c1nc(OCCN(C)C)nc3c1CCN(c1cc(O)cc4ccccc14)C3)C2` [Example 16, 1-(6-(2-(2-(dimethylamino)ethoxy)-7-(3-hydroxynaphthalen-1-yl)-5,6,7,8-tetrahydropyrido[3,4-d]pyrimidin-4-yl)-2,6-diazaspiro[3.3]heptan-2-yl)prop-2-en-1-one], the IC50 was > 1000 nM.

`C=CC(=O)N1CCN(c2nc(OC[C@@H]3CCCN3C)nc3c2CCN(c2c(C)ccc4cn[nH]c24)C3)CC1CC#N` (stereo partly shown) [Example 238]: the IC50 was 0.1 to 1000 nM.

As for `C=CC(=O)N1CCN(c2nc(OCCCCN(C)C)nc3c2CCN(c2cc(O)cc4ccccc24)C3)CC1` [Example 40, 1-(4-(2-(4-(dimethylamino)butoxy)-7-(3-hydroxynaphthalen-1-yl)-5,6,7,8-tetrahydropyrido[3,4-d]pyrimidin-4-yl)piperazin-1-yl)prop-2-en-1-one], the IC50 lay in the range of 0.1 to 1000 nM.

The values above are taken from patent US10689377B2 (Mirati Therapeutics, Inc., priority 2017, dated 2020).
